Patent US12364689B2, “Dosage regimen for the treatment of cancer” (AstraZeneca AB, priority 2020, dated 2025)
“Also recorded” adds a separate entry of the source.

Experiments:
[1] = test system: women with ER+ HER2- advanced breast cancer; assay: Phase 1 clinical trial: safety and tolerability (AEs, DLTs); assay type: in vivo
Method: “Grade 4 or 5 adverse events” can be classified according to the common terminology criteria for adverse events (CTCAE).
Dose Limiting Toxicity (DLT): a DLT is defined as an AE or abnormal laboratory value that occurs from the first dose of AZD9833 up to and including Day 28, Cycle 1 (the DLT period) that is assessed as unrelated to disease progression, intercurrent illness, or concomitant medications and that, despite optimal therapeutic intervention, meets any of the following criteria: • (a) Any death not clearly due to the underlying disease or extraneous causes • (b) Haematological toxicities as follows (CTCAE): • (i) Any >Grade 4 haematological toxicity present for more than 4 consecutive days, or requiring blood transfusions, G-CSF, or erythropoietins. • (ii)>Grade 3 neutropenia of any duration accompanied with fever ≥38.5° C. and/or systemic infection. • (iii)>Grade 3 thrombocytopenia of any duration with bleeding. • (iv) Grade 4 thrombocytopenia (regardless of duration or bleeding) • (c) Any non-haematological toxicity CTCAE >Grade 3 but with the following conditional stipulations: • (i) Nausea >CTCAE Grade 3 for more than 3 consecutive days despite administration of maximal anti-emetic therapy. • (ii) Vomiting >CTCAE Grade 3 for more than 3 consecutive days despite administration of maximal anti-emetic therapy. • (iii) Vomiting >CTCAE Grade 4 (regardless of duration) • (iv) Diarrhoea >CTCAE Grade 3 for more than 3 consecutive days despite administration of maximal anti-diarrheal therapy. • (v) Diarrhoea ≥ CTCAE Grade 4 (regardless of duration) • (vi) CTCAE Grade ≥3 fatigue that persists for more than 4 days. • (vii) CTCAE Grade ≥3 increase in creatinine. • (d) Other toxicity: • (i) QTcF value >500 ms or QTcF prolongation from baseline by 60 ms and >480 ms confirmed on at least 2 separate ECGs. • (ii)>CTCAE Grade 4 electrocardiogram QT corrected interval prolongation. • (iii) An increase in serum/plasma AST or ALT ≥3×ULN and concurrent TBL ≥2 ULN. • (e) Any other toxicity that: • (i) Is greater than at baseline and is clinically significant and/or unacceptable despite optimal therapeutic intervention, and is judged to be a DLT by the SRC, or • (ii) Results in a disruption of the dosing schedule of more than 14 days despite optimal therapeutic intervention.
Safety and Clinical Assessments: The safety and tolerability of AZD9833 is the primary objective of this study. Related outcome measures are DLTs, AEs/SAEs, vital signs, clinical chemistry/haematology, and ECGs.
Clinical Safety Laboratory Assessments: Clinical chemistry, haematology, and urinalysis and coagulation will be performed at a local laboratory at or near to the investigator study site. Sample tubes and sample sizes may vary depending on laboratory method used and routine practice at the study site.
A clinical trial according to the above protocol was carried out using 60 patients.

[2] = Phase 1 clinical trial: pharmacokinetics of AZD9833 in plasma; assay type: in vivo, human
From the text: The “median terminal half-life” is the median time for a patient's drug blood plasma concentration to halve after reaching pseudo-equilibrium.
Pharmacokinetics: The characterisation of the pharmacokinetics of single and multiple doses of AZD9833 is a secondary objective of this study. Any residual sample remaining after PK analysis has been performed may be used to identify, characterise, and establish the concentration of AZD9833 metabolites and drug-related products in plasma, and/or to conduct exploratory biomarker research. Analysis of AZD9833 in plasma and urine will be performed using appropriate bioanalytical methods. Full details of the analytical methods used will be described in separate bioanalytical reports.
All samples within the known stability of the analytes of interest at the time of receipt by the bioanalytical laboratory will be analysed. In addition, the PK samples may be subjected to further analyses to identify, characterise, and establish the concentration of metabolites in plasma. Any results from such analyses will be reported separately from the clinical study report. Incurred sample reproducibility analysis, if any, will be performed with the bioanalysis of the test samples. The results from the evaluation will not be reported in the clinical study report but, separately, in a bioanalytical report. […]

Structure (SMILES): C[C@@H]1Cc2c(ccc3[nH]ncc23)[C@@H](c2ccc(NC3CN(CCCF)C3)cn2)N1CC(F)(F)F [AZD9833, N-(1-(3-fluoropropyl)azetidin-3-yl)-6-((6S,8R)-8-methyl-7-(2,2,2-trifluoroethyl)-6,7,8,9-tetrahydro-3H-pyrazolo[4,3-f]isoquinolin-6-yl) pyridin-3-amine]
- DLT observed ([1]; 300 mg): G3 QTcF prolongation
- DLT observed ([1]; 450 mg): G3 vomiting; also recorded: a combination of G2 visual disturbance, G2 headache and G2 gait disturbance
- G4 or 5 AEs ([1]; 60 patients, all doses): No G4 or 5 AEs were reported
- Treatment-related AE: asthenia, patients affected ([1]; 60 patients, all doses): 10%
- Treatment-related AE: bradycardia/sinus bradycardia, patients affected ([1]; 60 patients, all doses): 45%
- Treatment-related AE: dizziness, patients affected ([1]; 60 patients, all doses): 10%
- Treatment-related AE: fatigue, patients affected ([1]; 60 patients, all doses): 13%
- Treatment-related AE: nausea, patients affected ([1]; 60 patients, all doses): 18%
- Treatment-related AE: visual disturbances, patients affected ([1]; 60 patients, all doses): 53%
- Treatment-related AE: vomiting, patients affected ([1]; 60 patients, all doses): 10%
- clinical relevance of observed AEs ([1]; 60 patients, all doses): None of the observed AEs were deemed to be clinically relevant
- patients who experienced DLTs ([1]; of 60 patients, all doses): Three
- asthenia, share G1 ([1]; of affected patients, grade 1): 67%
- bradycardia/sinus bradycardia, share G1 ([1]; of affected patients, grade 1): 93%
- dizziness, share G1 ([1]; of affected patients, grade 1): 83%
- fatigue, share G1 ([1]; of affected patients, grade 1): 38%
- nausea, share G1 ([1]; of affected patients, grade 1): 46%
- visual disturbances, share G1 ([1]; of affected patients, grade 1): 91%
- vomiting, share G1 ([1]; of affected patients, grade 1): 50%
- asthenia, share G2 ([1]; of affected patients, grade 2): 33%
- bradycardia/sinus bradycardia, share G2 ([1]; of affected patients, grade 2): 7%
- fatigue, share G2 ([1]; of affected patients, grade 2): 63%
- nausea, share G2 ([1]; of affected patients, grade 2): 55%
- visual disturbances, share G2 ([1]; of affected patients, grade 2): 6%
- vomiting, share G2 ([1]; of affected patients, grade 2): 33%
- dizziness, share G3 ([1]; of affected patients, grade 3): 17%
- visual disturbances, share G3 ([1]; of affected patients, grade 3): 3%
- vomiting, share G3 ([1]; of affected patients, grade 3): 17%
- AZD9833 exposure versus dose ([2]; after multiple doses): dose proportional
- half-life ([2]; human, plasma, patients, oral QD dosing, across five doses, read-out: median terminal t1/2 (converted)): 12 h
